Results taken from article PMC10714399, “Open Source Antibiotics: Simple Diarylimidazoles Are Potent against Methicillin-Resistant Staphylococcus aureus” (ACS Infectious Diseases, 2023).
Converted amounts (≈) assume the structure as drawn. “And” between values parts separate entries of the source, which are not always exact repeats. Equal values may be shown once. Read-outs that look alike come from different tables or passages of the source.

Columns and labels:
[1] = system: S. aureus ATCC 25923 (methicillin-susceptible); test: In vitro antibacterial activity, MIC (UCL), MSSA; type: cell-based, Staphylococcus aureus; details: for MIC: Staphylococcus aureus
Experimental: (§1) Staphylococcus aureus NCTC 13373 (mecA-positive; methicillin-resistant, NCTC 13373) was supplied by the National Collection of Type Cultures (NCTC), Public Health England, United Kingdom. Other organisms, S. aureus ATCC 25923 (methicillin-susceptible) and Enterococcus faecalis ATCC 51299 (vanA-positive; vancomycin-resistant), were obtained from the American Type Culture Collection (ATCC) via LGC Standards, UK. A suspension of each organism was prepared from an overnight plate culture (tryptone soya agar) in phosphate-buffered saline (PBS) and adjusted to an absorbance reading at 600 nm of 0.1, which is approximately equivalent to 1 × 10^8 colony-forming units (CFU) per mL. The cultures were further diluted 1:100 in isosensitest broth (Oxoid, United Kingdom) before 100 μL was used to inoculate each well of a 96-well plate that contained diluted samples of the OSA series. Compounds were evaluated over a 2-fold dilution range from 32 to 0.03 μg/mL. Stocks of the samples were prepared in 100% DMSO at […] before being diluted in isosenstitest broth. The highest concentration of DMSO present was 2%, which has been previously shown not to inhibit the growth of the microorganisms (data not shown). […] Vancomycin was used as a quality control compound.

[2] = system: Enterococcus faecalis ATCC 51299 (vanA-positive; vancomycin-resistant); test: In vitro antibacterial activity, MIC (UCL), VRE; type: cell-based
Experimental: as §1

[3] = system: Staphylococcus aureus NCTC 13373 (mecA-positive; methicillin-resistant); test: In vitro antibacterial activity, MIC (UCL School of Pharmacy assay), MRSA; type: cell-based; details: for MIC: Staphylococcus aureus
Experimental: as §1

[4] = system: MRC-5SV2 (human lung fibroblast cell line); test: Toxicity against MRC-5SV2; type: cell-based
Experimental: (§2) ADME and toxicity for compounds were measured according to procedures outlined in the manuscript submitted in parallel to this one;2 other procedures were used for those compounds analysed by Monash University (in vitro ADME) or UCL (toxicity), both described in the main

[5] = system: PMM (primary mouse macrophages); test: Toxicity against PMM; type: cell-based
Experimental: as §2

[6] = UCL assay, read-out: MSSA MIC (ug/mL) (UCL)
[7] = UCL assay, read-out: MRSA MIC (ug/mL) (UCL)

Row | SMILES | MIC [1, 6] [µg/mL] | MIC [3, 7] [µg/mL] | MRC5 TC50 ([4]; MRC5 cells) [µM] | PMM TC50 ([5]; PMM) [µM] | also measured
1 | Cc1ccc2nc(-c3ccccn3)c(NCc3ccccc3)n2c1 [OSA_000842] | – | – | – | – | MIC ([1]; read-out: MSSA MIC (UCL)): 4 µg/mL (≈ 12.7 µM); MIC ([2]; read-out: VRE MIC (UCL)): 32 µg/mL (≈ 102 µM); MIC ([3]; UCL, read-out: MRSA MIC (UCL)): 8 µg/mL (≈ 25.4 µM)
2 | COc1ccn2c(Nc3ccccc3F)c(-c3ccccn3)nc2c1 [OSA_000851] | – | – | – | – | MIC ([1]; read-out: MSSA MIC (UCL)): 4 µg/mL (≈ 12 µM); MIC ([2]; read-out: VRE MIC (UCL)): 16 µg/mL (≈ 47.9 µM); MIC ([3]; UCL, read-out: MRSA MIC (UCL)): 8 µg/mL (≈ 23.9 µM)
3 | c1cnc(-c2nc3n(c2-c2ccc4occc4c2)CCC3)cn1 [OSA_000873] | – | – | – | – | MIC ([1]; read-out: MSSA MIC (UCL)): > 32 µg/mL; MIC ([2]; read-out: VRE MIC (UCL)): > 32 µg/mL; MIC ([3]; UCL, read-out: MRSA MIC (UCL)): > 32 µg/mL
4 | Fc1ccc(NCc2c(-c3ccccn3)nc3ccccn23)cc1 [OSA_001019] | > 32 | > 32 | 64 | 64 | –
5 | Cc1ccc2nc(-c3ccccc3)cn2c1 [OSA_001026] | > 32 | > 32 | 64 | 64 | –
6 | Cc1ccc2nc(-c3ccccc3)c(CNc3ccc(F)cc3)n2c1 [OSA_001027] | > 32 | > 32 | 64 | 64 | –
7 | Cc1ccc2nc(-c3ccccc3)c(CNc3cccc(C(F)(F)F)c3)n2c1 [OSA_001028] | > 32 | > 32 | 64 | 64 | –
8 | CCCCN(Cc1c(-c2ccccc2)nc2ccc(C)cn12)c1cccc(C(F)(F)F)c1 [OSA_001029] | 8 (≈ 18.3 µM) | 8 (≈ 18.3 µM) | 1.19 | 8 | –
9 | Cc1ccn2cc(-c3ccccn3)nc2c1 [OSA_001030] | > 32 | > 32 | 22.11 | 64 | –
10 | Cc1ccn2c(CNc3ccc(F)cc3)c(-c3ccccn3)nc2c1 [OSA_001031] | > 32 | > 32 | 64 | 64 | –
11 | CCCCN(Cc1c(-c2ccccn2)nc2cc(C)ccn12)c1ccc(F)cc1 [OSA_001032] | 32 (≈ 82.4 µM) | 32 (≈ 82.4 µM) | 16 | 32 | –
12 | Cc1ccn2c(CN(CC(C)C)c3cccc(C(F)(F)F)c3)c(-c3ccccn3)nc2c1 [OSA_001033] | > 32 | > 32 | 9.78 | 32 | –
13 | FC(F)(F)c1ccc(-c2c(-c3ccccn3)nc3n2CCC3)cc1 [OSA_001052] | 16 (≈ 48.6 µM) | 16 (≈ 48.6 µM) | 8.17 | 32 | –
14 | Fc1ccc(-c2c(-c3ccccn3)nc3n2CCC3)cc1 [OSA_001053] | > 32 | > 32 | 7.55 | 32 | –
15 | c1ccc(-c2nc3n(c2-c2ccncc2)CCC3)nc1 [OSA_001072] | > 32 | > 32 | 64 | 64 | –
16 | Fc1cc(-c2c(-c3ccccn3)nc3n2CCC3)ccn1 [OSA_001073] | > 32 | > 32 | 30.55 | 32 | –
17 | Nc1ccc(-c2c(-c3ccccn3)nc3n2CCC3)cc1 [OSA_001074] | > 32 | > 32 | 5.73 | 8 | –
18 | N#Cc1ccc(-c2c(-c3ccccn3)nc3n2CCC3)cn1 [OSA_001075] | > 32 | > 32 | 64 | 64 | –
19 | COc1cc(-c2c(-c3ccccn3)nc3n2CCC3)ccc1C#N [OSA_001076] | > 32 | > 32 | 27.86 | 64 | –
20 | N#Cc1ccc(-c2c(-c3ccccn3)nc3n2CCC3)cc1C(F)(F)F [OSA_001077] | > 32 | > 32 | 64 | 64 | –

Row | SMILES | MIC [1, 6] [µg/mL] | MIC [3, 7] [µg/mL] | MRC5 TC50 ([4]; MRC5 cells) [µM] | PMM TC50 ([5]; PMM) [µM] | also measured
21 | Cc1ccc2nc(-c3ccccn3)c(NCc3ccccc3)n2c1 [compound 842] | – | – | – | – | MSSA MIC [1]: 4 µg/mL; VRE MIC [2]: 32 µg/mL; MRSA MIC [3]: 8 µg/mL
22 | COc1ccn2c(Nc3ccccc3F)c(-c3ccccn3)nc2c1 [compound 851] | – | – | – | – | MSSA MIC [1]: 4 µg/mL; VRE MIC [2]: 16 µg/mL; MRSA MIC [3]: 8 µg/mL
23 | COc1ccn2c(NCc3cn(C)cn3)c(-c3ccccn3)nc2c1.O=CO [compound 853] | – | – | – | – | VRE MIC [2]: > 32 µg/mL; MRSA MIC [3]: > 32 µg/mL
24 | COc1ccn2c(Nc3ccnc(C)c3)c(-c3ccccn3)nc2c1 [compound 854] | – | – | – | – | VRE MIC [2]: > 32 µg/mL; MRSA MIC [3]: > 32 µg/mL
25 | c1ccc(-c2nc3ncccn3c2-c2ccc3occc3c2)nc1 [compound 863] | – | – | – | – | VRE MIC [2]: > 32 µg/mL; MRSA MIC [3]: > 32 µg/mL
26 | N#Cc1cccc(-c2c(-c3ccccn3)nc3n2CCC3)c1 [compound 864] | – | – | – | – | MIC ([2]; read-out: VRE MIC): > 32 µg/mL; MIC ([3]; read-out: MRSA MIC): > 32 µg/mL
27 | COc1ccn2c(Nc3ccc4c(c3)OCCO4)c(-c3c[nH]cn3)nc2c1 [compound 866] | – | – | – | – | VRE MIC [2]: > 32 µg/mL; MRSA MIC [3]: > 32 µg/mL
28 | COc1ccc2nc(-c3c[nH]cn3)c(Nc3ccc4c(c3)OCCO4)n2c1 [compound 867] | – | – | – | – | VRE MIC [2]: > 32 µg/mL; MRSA MIC [3]: > 32 µg/mL
29 | FC(F)(F)Oc1ccc(-c2c(-c3ccccn3)nc3n2CCC3)cc1 [compound 868] | – | – | – | – | MIC ([2]; read-out: VRE MIC): 32 µg/mL (≈ 92.7 µM); MIC ([3]; read-out: MRSA MIC): 8 µg/mL (≈ 23.2 µM)
30 | c1cnc(-c2nc3n(c2-c2ccc4occc4c2)CCC3)cn1 [compound 873] | – | – | – | – | MIC ([1]; read-out: MSSA MIC): > 32 µg/mL; MIC ([2]; read-out: VRE MIC): > 32 µg/mL; activity against MRSA, in words [3]: inactive; MIC ([3]; read-out: MRSA MIC): > 32 µg/mL
31 | c1ncc(-c2nc3n(c2-c2ccc4occc4c2)CCC3)cn1 [compound 874] | – | – | – | – | MIC ([2]; read-out: VRE MIC): > 32 µg/mL; activity against MRSA, in words [3]: inactive; MIC ([3]; read-out: MRSA MIC): > 32 µg/mL
32 | Clc1ccc(-c2c(-c3ccccn3)nc3n2CCC3)cc1Cl [compound 876] | – | – | – | – | MIC ([2]; read-out: VRE MIC): 8 µg/mL (≈ 24.2 µM); MIC ([3]; read-out: MRSA MIC): 8 µg/mL (≈ 24.2 µM)
33 | CC(=O)c1ccc(-c2c(-c3ccccn3)nc3n2CCC3)cc1 [compound 973] | – | – | – | – | MIC ([2]; read-out: VRE MIC): > 32 µg/mL; activity against MRSA, in words [3]: not tolerated; MIC ([3]; read-out: MRSA MIC): > 32 µg/mL
34 | Cc1cccc(-c2c(-c3ccccn3)nc3n2CCC3)c1 [compound 976] | – | – | – | – | MIC ([2]; read-out: VRE MIC): 32 µg/mL (≈ 116 µM); MIC ([3]; read-out: MRSA MIC): 8 µg/mL (≈ 29.1 µM)
35 | Cc1ccccc1-c1c(-c2ccccn2)nc2n1CCC2 [compound 977] | – | – | – | – | MIC ([2]; read-out: VRE MIC): 32 µg/mL (≈ 116 µM); MIC ([3]; read-out: MRSA MIC): 32 µg/mL (≈ 116 µM)
36 | Fc1ccc(NCc2c(-c3ccccn3)nc3ccccn23)cc1 [compound 1019] | – | – | – | – | MIC ([1]; read-out: MSSA MIC): > 32 µg/mL; MRC5 TC50 [4]: 20.4 µg/mL; PMM TC50 [5]: 20.4 µg/mL; MRSA MIC [3]: 32 µg/mL; MIC ([3]; read-out: MRSA MIC): > 32 µg/mL
37 | CS(=O)(=O)c1ccc2nc(-c3ccccn3)c(Nc3ccc(F)cc3)n2c1 [compound 1020] | – | – | – | – | MSSA MIC [1]: > 32 µg/mL; MRC5 TC50 [4]: 24.5 µg/mL; PMM TC50 [5]: 12.2 µg/mL; MRSA MIC [3]: > 32 µg/mL and 32 µg/mL
38 | CC(=O)N(c1ccc(F)cc1)c1c(-c2ccccn2)nc2ccccn12 [compound 1021] | – | – | – | – | MIC ([1]; read-out: MSSA MIC): > 32 µg/mL; MRC5 TC50 [4]: 22.2 µg/mL; PMM TC50 [5]: 22.2 µg/mL; MRSA MIC [3]: 32 µg/mL; MIC ([3]; read-out: MRSA MIC): > 32 µg/mL
39 | Cc1ccc2nc(-c3ccccc3)cn2c1 [compound 1026] | – | – | – | – | MSSA MIC [1]: > 32 µg/mL; MRC5 TC50 [4]: 13.3 µg/mL; PMM TC50 [5]: 13.3 µg/mL; MRSA MIC [3]: > 32 µg/mL and 32 µg/mL
